{"source": "ChEMBL document CHEMBL1151433", "about": "“National and regional assessment of antimicrobial resistance among community-acquired respiratory tract pathogens identified in a 2005-2006 U.S. Faropenem surveillance study” (2007)", "key": {"Streptococcus pneumoniae [1]": {"system": "Streptococcus pneumoniae", "experiment": "Antibacterial activity against Streptococcus pneumoniae ATCC 49619 isolated from respiratory tract infected patients with 15 to 64 years of age after 20 to 24 hrs by broth microdilution method", "type": "functional"}, "Streptococcus pneumoniae [2]": {"system": "Streptococcus pneumoniae", "experiment": "Antibacterial activity against penicillin-resistant Streptococcus pneumoniae ATCC 49619 isolated from respiratory tract infected patients after 20 to 24 hrs by broth microdilution method", "type": "functional"}, "Streptococcus pneumoniae [3]": {"system": "Streptococcus pneumoniae", "experiment": "Antibacterial activity against Streptococcus pneumoniae ATCC 49619 isolated from respiratory tract infected patients assessed as susceptible isolates after 20 to 24 hrs by broth microdilution method", "type": "functional"}, "Streptococcus pneumoniae [4]": {"system": "Streptococcus pneumoniae", "experiment": "Antibacterial activity against Streptococcus pneumoniae ATCC 49619 isolated from respiratory tract infected inpatients after 20 to 24 hrs by broth microdilution method", "type": "functional"}, "Streptococcus pneumoniae [5]": {"system": "Streptococcus pneumoniae", "experiment": "Antibacterial activity against Streptococcus pneumoniae ATCC 49619 isolated from respiratory tract infected patients with 15 to 64 years of age assessed as resistant isolates after 20 to 24 hrs by broth microdilution method", "type": "functional"}, "Moraxella catarrhalis": {"system": "Moraxella catarrhalis", "experiment": "Antibacterial activity against Moraxella catarrhalis isolated from respiratory tract infected patients after 20 to 24 hrs by broth microdilution method", "type": "functional"}, "Streptococcus pneumoniae [6]": {"system": "Streptococcus pneumoniae", "experiment": "Antibacterial activity against Streptococcus pneumoniae ATCC 49619 isolated from respiratory tract infected inpatients assessed as resistant isolates after 20 to 24 hrs by broth microdilution method", "type": "functional"}, "Streptococcus pneumoniae [7]": {"system": "Streptococcus pneumoniae", "experiment": "Antibacterial activity against penicillin-intermediate Streptococcus pneumoniae ATCC 49619 isolated from respiratory tract infected patients after 20 to 24 hrs by broth microdilution method", "type": "functional"}, "Haemophilus influenzae [8]": {"system": "Haemophilus influenzae", "experiment": "Antibacterial activity against beta lactamase-negative Haemophilus influenzae […] isolated from respiratory tract infected patients assessed as susceptible isolates after 20 to 24 hrs by broth microdilution method", "type": "functional"}, "Haemophilus influenzae [9]": {"system": "Haemophilus influenzae", "experiment": "Antibacterial activity against beta lactamase-negative Haemophilus influenzae […] isolated from respiratory tract infected patients after 20 to 24 hrs by broth microdilution method", "type": "functional", "conditions": "ATCC 49247"}, "Streptococcus pneumoniae [10]": {"system": "Streptococcus pneumoniae", "experiment": "Antibacterial activity against penicillin-intermediate Streptococcus pneumoniae ATCC 49619 isolated from respiratory tract infected patients assessed as resistant isolates after 20 to 24 hrs by broth microdilution method", "type": "functional"}, "Streptococcus pneumoniae [11]": {"system": "Streptococcus pneumoniae", "experiment": "Antibacterial activity against Streptococcus pneumoniae ATCC 49619 isolated from respiratory tract infected patients more than 65 years of age after 20 to 24 hrs by broth microdilution method", "type": "functional"}, "Streptococcus pneumoniae [12]": {"system": "Streptococcus pneumoniae", "experiment": "Antibacterial activity against Streptococcus pneumoniae ATCC 49619 isolated from respiratory tract infected patients with 6 to 14 years of age after 20 to 24 hrs by broth microdilution method", "type": "functional"}, "Haemophilus influenzae [13]": {"system": "Haemophilus influenzae", "experiment": "Antibacterial activity against Haemophilus influenzae […] isolated from respiratory tract infected patients after 20 to 24 hrs by broth microdilution method", "type": "functional", "conditions": "ATCC 49247"}, "Streptococcus pneumoniae [14]": {"system": "Streptococcus pneumoniae", "experiment": "Antibacterial activity against Streptococcus pneumoniae ATCC 49619 isolated from respiratory tract infected patients with 6 to 14 years of age assessed as resistant isolates after 20 to 24 hrs by broth microdilution method", "type": "functional"}, "Streptococcus pneumoniae [15]": {"system": "Streptococcus pneumoniae", "experiment": "Antibacterial activity against penicillin-resistant Streptococcus pneumoniae ATCC 49619 isolated from respiratory tract infected patients assessed as resistant isolates after 20 to 24 hrs by broth microdilution method", "type": "functional"}, "Streptococcus pneumoniae [16]": {"system": "Streptococcus pneumoniae", "experiment": "Antibacterial activity against Streptococcus pneumoniae ATCC 49619 isolated from respiratory tract infected outpatients after 20 to 24 hrs by broth microdilution method", "type": "functional"}, "Streptococcus pneumoniae [17]": {"system": "Streptococcus pneumoniae", "experiment": "Antibacterial activity against Streptococcus pneumoniae ATCC 49619 isolated from respiratory tract infected patients within 2 years of age after 20 to 24 hrs by broth microdilution method", "type": "functional"}, "Streptococcus pneumoniae [18]": {"system": "Streptococcus pneumoniae", "experiment": "Antibacterial activity against Streptococcus pneumoniae ATCC 49619 isolated from respiratory tract infected patients after 20 to 24 hrs by broth microdilution method", "type": "functional"}, "Streptococcus pneumoniae [19]": {"system": "Streptococcus pneumoniae", "experiment": "Antibacterial activity against penicillin-intermediate Streptococcus pneumoniae ATCC 49619 isolated from respiratory tract infected patients assessed as susceptible isolates after 20 to 24 hrs by broth microdilution method", "type": "functional"}, "Streptococcus pneumoniae [20]": {"system": "Streptococcus pneumoniae", "experiment": "Antibacterial activity against Streptococcus pneumoniae ATCC 49619 isolated from respiratory tract infected female patients after 20 to 24 hrs by broth microdilution method", "type": "functional"}, "Haemophilus influenzae [21]": {"system": "Haemophilus influenzae", "experiment": "Antibacterial activity against beta lactamase-positive Haemophilus influenzae […] isolated from respiratory tract infected patients assessed as susceptible isolates after 20 to 24 hrs by broth microdilution method", "type": "functional, ATCC 49247"}, "Streptococcus pneumoniae [22]": {"system": "Streptococcus pneumoniae", "experiment": "Antibacterial activity against penicillin-susceptible Streptococcus pneumoniae ATCC 49619 isolated from respiratory tract infected patients assessed as susceptible isolates after 20 to 24 hrs by broth microdilution method", "type": "functional"}, "Streptococcus pneumoniae [23]": {"system": "Streptococcus pneumoniae", "experiment": "Antibacterial activity against penicillin-susceptible Streptococcus pneumoniae ATCC 49619 isolated from respiratory tract infected patients assessed as resistant isolates after 20 to 24 hrs by broth microdilution method", "type": "functional"}, "Streptococcus pneumoniae [24]": {"system": "Streptococcus pneumoniae", "experiment": "Antibacterial activity against penicillin-susceptible Streptococcus pneumoniae ATCC 49619 isolated from respiratory tract infected patients after 20 to 24 hrs by broth microdilution method", "type": "functional"}, "Streptococcus pneumoniae [25]": {"system": "Streptococcus pneumoniae", "experiment": "Antibacterial activity against Streptococcus pneumoniae ATCC 49619 isolated from respiratory tract infected patients with 3 to 5 years of age after 20 to 24 hrs by broth microdilution method", "type": "functional"}, "Streptococcus pneumoniae [26]": {"system": "Streptococcus pneumoniae", "experiment": "Antibacterial activity against Streptococcus pneumoniae ATCC 49619 isolated from respiratory tract infected patients within 2 years of age assessed as resistant isolates after 20 to 24 hrs by broth microdilution method", "type": "functional"}, "Streptococcus pneumoniae [27]": {"system": "Streptococcus pneumoniae", "experiment": "Antibacterial activity against Streptococcus pneumoniae ATCC 49619 isolated from respiratory tract infected male patients assessed as resistant isolates after 20 to 24 hrs by broth microdilution method", "type": "functional"}, "Streptococcus pneumoniae [28]": {"system": "Streptococcus pneumoniae", "experiment": "Antibacterial activity against Streptococcus pneumoniae ATCC 49619 isolated from respiratory tract infected outpatients assessed as resistant isolates after 20 to 24 hrs by broth microdilution method", "type": "functional"}, "Haemophilus influenzae [29]": {"system": "Haemophilus influenzae", "experiment": "Antibacterial activity against beta lactamase-positive Haemophilus influenzae […] isolated from respiratory tract infected patients after 20 to 24 hrs by broth microdilution method", "type": "functional", "conditions": "ATCC 49247"}, "Streptococcus pneumoniae [30]": {"system": "Streptococcus pneumoniae", "experiment": "Antibacterial activity against Streptococcus pneumoniae ATCC 49619 isolated from respiratory tract infected patients assessed as resistant isolates after 20 to 24 hrs by broth microdilution method", "type": "functional"}, "Streptococcus pneumoniae [31]": {"system": "Streptococcus pneumoniae", "experiment": "Antibacterial activity against Streptococcus pneumoniae ATCC 49619 isolated from respiratory tract infected female patients assessed as resistant isolates after 20 to 24 hrs by broth microdilution method", "type": "functional"}, "Streptococcus pneumoniae [32]": {"system": "Streptococcus pneumoniae", "experiment": "Antibacterial activity against Streptococcus pneumoniae ATCC 49619 isolated from respiratory tract infected patients more than 65 years of age assessed as resistant isolates after 20 to 24 hrs by broth microdilution method", "type": "functional"}, "Streptococcus pneumoniae [33]": {"system": "Streptococcus pneumoniae", "experiment": "Antibacterial activity against Streptococcus pneumoniae ATCC 49619 isolated from respiratory tract infected patients with 3 to 5 years of age assessed as resistant isolates after 20 to 24 hrs by broth microdilution method", "type": "functional"}, "Streptococcus pneumoniae [34]": {"system": "Streptococcus pneumoniae", "experiment": "Antibacterial activity against Streptococcus pneumoniae ATCC 49619 isolated from respiratory tract infected male patients after 20 to 24 hrs by broth microdilution method", "type": "functional"}, "Haemophilus influenzae [35]": {"system": "Haemophilus influenzae", "experiment": "Antibacterial activity against Haemophilus influenzae […] isolated from respiratory tract infected patients assessed as susceptible isolates after 20 to 24 hrs by broth microdilution method", "type": "functional, ATCC 49247"}, "Streptococcus pneumoniae [36]": {"system": "Streptococcus pneumoniae", "experiment": "Antibacterial activity against penicillin-resistant Streptococcus pneumoniae ATCC 49619 isolated from respiratory tract infected patients assessed as susceptible isolates after 20 to 24 hrs by broth microdilution method", "type": "functional"}}, "data": [{"compound": "C=CC1=C(C(=O)O)N2C(=O)[C@@H](NC(=O)/C(=N\\O)c3csc(N)n3)[C@H]2SC1", "note": "[CEFDINIR]", "values": [{"measurement": "MIC90", "setting": "Streptococcus pneumoniae [1]", "value": 4, "unit": "µg/mL"}, {"measurement": "MIC50", "setting": "Streptococcus pneumoniae [2]", "value": 8, "unit": "µg/mL"}, {"measurement": "Activity", "setting": "Streptococcus pneumoniae [3]", "value": 76.8, "unit": "%"}, {"measurement": "MIC90", "setting": "Streptococcus pneumoniae [4]", "value": 8, "unit": "µg/mL"}, {"measurement": "Activity", "setting": "Streptococcus pneumoniae [5]", "value": 15.4, "unit": "%"}, {"measurement": "MIC50", "setting": "Moraxella catarrhalis", "value": 0.25, "unit": "µg/mL"}, {"measurement": "MIC90", "setting": "Moraxella catarrhalis", "value": 0.5, "unit": "µg/mL"}, {"measurement": "Activity", "setting": "Streptococcus pneumoniae [6]", "value": 18.8, "unit": "%"}, {"measurement": "MIC50", "setting": "Streptococcus pneumoniae [7]", "value": 0.25, "unit": "µg/mL"}, {"measurement": "MIC90", "setting": "Streptococcus pneumoniae [7]", "value": 2, "unit": "µg/mL"}, {"measurement": "Activity", "setting": "Haemophilus influenzae [8]", "value": 95, "unit": "%"}, {"measurement": "% susceptible", "setting": "Haemophilus influenzae [9]", "value": 1, "unit": "%"}, {"measurement": "MIC50", "setting": "Haemophilus influenzae [9]", "value": 0.25, "unit": "µg/mL"}, {"measurement": "Activity", "setting": "Streptococcus pneumoniae [10]", "value": 14.8, "unit": "%"}, {"measurement": "MIC90", "setting": "Streptococcus pneumoniae [11]", "value": 4, "unit": "µg/mL"}, {"measurement": "MIC90", "setting": "Streptococcus pneumoniae [12]", "value": 8, "unit": "µg/mL"}, {"measurement": "% susceptible", "setting": "Haemophilus influenzae [13]", "value": 1, "unit": "%"}, {"measurement": "MIC50", "setting": "Haemophilus influenzae [13]", "value": 0.25, "unit": "µg/mL"}, {"measurement": "Activity", "setting": "Streptococcus pneumoniae [14]", "value": 19.8, "unit": "%"}, {"measurement": "Activity", "setting": "Streptococcus pneumoniae [15]", "value": 100, "unit": "%"}, {"measurement": "MIC90", "setting": "Streptococcus pneumoniae [16]", "value": 8, "unit": "µg/mL"}, {"measurement": "MIC90", "setting": "Streptococcus pneumoniae [17]", "value": "> 8", "unit": "µg/mL"}, {"measurement": "MIC50", "setting": "Streptococcus pneumoniae [18]", "value": 0.12, "unit": "µg/mL"}, {"measurement": "MIC90", "setting": "Streptococcus pneumoniae [18]", "value": 8, "unit": "µg/mL"}, {"measurement": "Activity", "setting": "Streptococcus pneumoniae [19]", "value": 67.5, "unit": "%"}, {"measurement": "MIC90", "setting": "Streptococcus pneumoniae [20]", "value": 8, "unit": "µg/mL"}, {"measurement": "Activity", "setting": "Haemophilus influenzae [21]", "value": 94.4, "unit": "%"}, {"measurement": "Activity", "setting": "Streptococcus pneumoniae [22]", "value": 99.9, "unit": "%"}, {"measurement": "Activity", "setting": "Streptococcus pneumoniae [23]", "value": 0, "unit": "%"}, {"measurement": "MIC50", "setting": "Streptococcus pneumoniae [24]", "value": "≤ 0.06", "unit": "µg/mL"}, {"measurement": "MIC90", "setting": "Streptococcus pneumoniae [24]", "value": 0.12, "unit": "µg/mL"}, {"measurement": "MIC90", "setting": "Streptococcus pneumoniae [25]", "value": "> 8", "unit": "µg/mL"}, {"measurement": "Activity", "setting": "Streptococcus pneumoniae [26]", "value": 33.2, "unit": "%"}, {"measurement": "Activity", "setting": "Streptococcus pneumoniae [27]", "value": 19.8, "unit": "%"}, {"measurement": "Activity", "setting": "Streptococcus pneumoniae [28]", "value": 19.6, "unit": "%"}, {"measurement": "% susceptible", "setting": "Haemophilus influenzae [29]", "value": 1, "unit": "%"}, {"measurement": "MIC50", "setting": "Haemophilus influenzae [29]", "value": 0.25, "unit": "µg/mL"}, {"measurement": "Activity", "setting": "Streptococcus pneumoniae [30]", "value": 19.2, "unit": "%"}, {"measurement": "Activity", "setting": "Streptococcus pneumoniae [31]", "value": 18.3, "unit": "%"}, {"measurement": "Activity", "setting": "Streptococcus pneumoniae [32]", "value": 15.8, "unit": "%"}, {"measurement": "Activity", "setting": "Streptococcus pneumoniae [33]", "value": 23.2, "unit": "%"}, {"measurement": "MIC90", "setting": "Streptococcus pneumoniae [34]", "value": 8, "unit": "µg/mL"}, {"measurement": "Activity", "setting": "Haemophilus influenzae [35]", "value": 94.8, "unit": "%"}, {"measurement": "Activity", "setting": "Streptococcus pneumoniae [36]", "value": 0, "unit": "%"}]}]}
